In brackets after ≈: the same amount, converted by molar mass. Entries after “also recorded” stand apart in the source; their conditions may differ. Counter-ions that a name gives are not always drawn.

Consider seven compounds from US10815232B2, “Crystalline forms of viral-protein inhibitor drug VX-787, processes for preparation thereof and use thereof” (Crystal Pharmaceutical (Suzhou) Co., Ltd., priority 2017, dated 2020).

A short description of data set [1]: Dynamic solubility in FaSSIF and FeSSIF (Example 22). In kind it is physicochemical. The procedure: The crystallite form CS3 of compound I of the present disclosure and free form Form A in CN105849100A are prepared into saturated solutions in pH-5.0 FeSSIF (Fed state simulated intestinal fluids) and pH=6.5 FaSSIF (Fasted state simulated intestinal fluids). The content of the sample in the saturated solution was determined by high performance liquid chromatography (HPLC) after equlibrated for 1, 4 and 24 hours.

Data set [2] is described as follows: Storage stability of crystalline forms (XRPD, HPLC). In kind it is physicochemical. The note with it: for Purity after storage: initial purity 99.24%; for purities after storage: all storage conditions tested for the form. The procedure: The hydrochloride Form CS1 prepared by the present disclosure was stored under 25° C./60% RH and 40° C./75% RH for 1 month. The crystalline forms were checked by XRPD before and after storing.
Three samples of hydrochloride Form CS3 prepared by the present disclosure were stored in open dishes under conditions of 25° C./60% RH, 40° C./75% RH for 1 month, and 60° C./75% relative humidity for 2 weeks. The crystalline forms and the chemical purities were checked by XRPD and HPLC before and after storing.
Three samples of hydrochloride Form CS4 prepared by the present disclosure were stored in open dishes under conditions of 25° C./60% RH for two weeks, 40° C./75% RH for 1 month, and 60° C./75% relative humidity for 2 weeks. The crystalline forms and the chemical purities were checked by XRPD and HPLC respectively before and after storing.
[…] The crystalline forms and chemical purities were checked by HPLC and XRPD before and after storing.

Data set [3] can be described thus: Dynamic solubility in water (Example 11). In kind it is physicochemical. The procedure: 12 mg of hydrochloride Form CS3 prepared in the present disclosure and the hydrochloride Form A in CN105849100A were accurately weighed and placed in vials, followed by adding 1.2 mL of water. The samples were rotated at 30 rpm on a rotator and sampled at 1 hour, 4 hours, and 24 hours. After centrifugation with 0.45 urn polytetrafluoroethylene (PTFE) filters, the filtrates were collected for HPLC analysis.

Data set [4] can be described thus: Dynamic solubility, saturated solution in pure water (Example 17). In kind it is physicochemical. The note with it: for Solubility: pure water. The procedure: Hydrochloride Form CS4 of the present disclosure and hydrochloride Form A in CN105849100A were prepared into saturated solution in pure water. The content of the sample in the saturated solution was determined by high performance liquid chromatography (HPLC) after 1, 4 and 24 hours. The solubility data of hydrochloride Form CS4 of the present disclosure and hydrochloride Form A in CN105849100A are shown in Table 12.

A short description of data set [5]: Mechanical stability (grinding, XRPD). In kind it is physicochemical. The note with it: ground in an agate mortar for about 2 minutes. The procedure: About 10 mg of hydrochloride Form CS1 of the present disclosure was taken and ground in an agate mortar for about 2 minutes.
The subject of data set [6] is influenza virus infection. Conditions: Completed Phase IIa studies; cited from earlier work.
For data set [7] the following is noted: Phase I studies; cited from earlier work.
[8] abbreviates: 25° C./60% RH, Five months, open dish.
Setting [9] is: 40° C./75% RH, Five months, open dish.

With `O=C(O)[C@H]1C2CCC(CC2)[C@@H]1Nc1nc(-c2c[nH]c3ncc(F)cc23)ncc1F` [Form CS3 of Compound I], the “Solubility FaSSIF” value in data set [1] (FaSSIF pH=6.5, 1 hour) came to 110 µg/mL (≈ 275 µM); in data set [1] (FaSSIF pH=6.5, 4 hours), 210 µg/mL (≈ 526 µM); in data set [1] (FaSSIF pH=6.5, 24 hours), 200 µg/mL (≈ 501 µM). Also, the “solubility, times higher than Form A in CN105849100A” value in data set [1] (FaSSIF, 1, 4 and 24 hours) is on record as 6-16 times; in data set [1] (FeSSIF, 1, 4 and 24 hours), 4-11 times. In addition, the “Solubility FeSSIF” value in data set [1] (FeSSIF pH 5.0, 1 hour) stood at 210 µg/mL (≈ 526 µM); in data set [1] (FeSSIF pH 5.0, 4 hours), 290 µg/mL (≈ 726 µM); in data set [1] (FeSSIF pH 5.0, 24 hours), 250 µg/mL (≈ 626 µM). The “Change of crystalline form” value in data set [2] (setting [8]) and in data set [2] (setting [9]) was “Five months Unchanged” throughout. In addition, the Purity after storage in data set [2] (setting [8]) was 99.28%; in data set [2] (setting [9]), 99.26%. Further, the “time for which the form is stable” value in data set [2] (25° C./60% RH, listed as Crystalline form CS3 of compound I) is on record as “at least 5 months”; in data set [2] (25° C./60% RH, listed as crystalline form CS3 of compound I), “at least 5 months”; in data set [2] (40° C./75% RH, listed as Crystalline form CS3 of compound I) it was “at least 5 month”; in data set [2] (40° C./75% RH, listed as crystalline form CS3 of compound I), “at least 5 month”.

On to `O=C(O)[C@H]1C2CCC(CC2)[C@@H]1Nc1nc(-c2c[nH]c3ncc(F)cc23)ncc1F` [Free Form Form A in CN105849100A, reference compound], for which the “Solubility FaSSIF” value turned out to be 7 µg/mL (≈ 17.5 µM) in data set [1] (FaSSIF pH=6.5, 1 hour); 13 µg/mL (≈ 32.5 µM) in data set [1] (FaSSIF pH=6.5, 4 hours); 31 µg/mL (≈ 77.6 µM) in data set [1] (FaSSIF pH=6.5, 24 hours). The “Solubility FeSSIF” value in data set [1] (FeSSIF pH 5.0, 1 hour) was 18 µg/mL (≈ 45.1 µM); in data set [1] (FeSSIF pH 5.0, 4 hours), 30 µg/mL (≈ 75.1 µM); in data set [1] (FeSSIF pH 5.0, 24 hours), 57 µg/mL (≈ 143 µM).

Turning to `O=C(O)[C@H]1C2CCC(CC2)[C@@H]1Nc1nc(-c2c[nH]c3ncc(F)cc23)ncc1F` [Hydrochloride Form A in CN105849100A, reference compound], the Solubility was 0.3 µg/mL in data set [3] (1 hour); 0.9 µg/mL in data set [3] (4 hours); 2.5 µg/mL in data set [3] (24 hours); 0.3 µg/mL in data set [4] (1 hour); 0.9 µg/mL in data set [4] (4 hours); 2.5 µg/mL in data set [4] (24 hours).

`O=C(O)[C@H]1C2CCC(CC2)[C@@H]1Nc1nc(-c2c[nH]c3ncc(F)cc23)ncc1F` [Hydrochloride Form CS1]: the “crystalline form change after grinding” value in data set [5] was “no form change is observed; also recorded: No crystalline form change”. Besides, the “time for which the form is stable” value was “at least 1 months” in data set [2] (25° C./60% RH); “at least 1 months” in data set [2] (25° C./60% RH, listed as hydrochloride Form CS1); “at least 1 month” in data set [2] (40° C./75% RH); “at least 1 month” in data set [2] (40° C./75% RH, listed as hydrochloride Form CS1). Besides, the “Change of crystalline form” value was “Unchanged” in data set [2] (25° C./60% RH, One month) and “Unchanged” in data set [2] (40° C./75% RH, One month). In data set [2], the purities after storage result is “above 98%”.

Turning to `O=C(O)[C@H]1C2CCC(CC2)[C@@H]1Nc1nc(-c2c[nH]c3ncc(F)cc23)ncc1F` [Hydrochloride Form CS3], the “Change of crystalline form” value in data set [2] (25° C./60% RH, Seven months, open dish) was “Unchanged”; in data set [2] (60° C./75% RH, Two weeks, open dish), “Unchanged”. Besides, the “time for which the form is stable” value is reported as “at least 7 months” in data set [2] (25° C./60% RH, listed as hydrochloride Form CS3); “at least 1 month” in data set [2] (40° C./75% RH, listed as hydrochloride Form CS3); “at least 2 weeks” in data set [2] (60° C./75% RH). For the same compound, in data set [2], the purities after storage entry was “above 98%”. The Solubility in data set [3] (1 hour) worked out at 2.5 µg/mL; in data set [3] (4 hours), 46.0 µg/mL; in data set [3] (24 hours) it was 15.0 µg/mL. Besides, the “solubility, times higher than hydrochloride Form A in CN105849100A” value in data set [3] (after 1, 4 and 24 hours) was 6-51 times.

For `O=C(O)[C@H]1C2CCC(CC2)[C@@H]1Nc1nc(-c2c[nH]c3ncc(F)cc23)ncc1F` [Hydrochloride Form CS4], the “Change of crystalline form” value in data set [2] (25° C./60% RH, Two weeks, open dish) is recorded as “Unchanged”. In addition, the “time for which the form is stable” value in data set [2] (25° C./60% RH, listed as hydrochloride Form CS4) is “at least 2 weeks”; in data set [2] (40° C./75% RH, listed as hydrochloride Form CS4) it was “at least 1 month”. The purities after storage entry in data set [2] is “above 98%”. Further, the Solubility in data set [4] (1 hour) came out at 85 µg/mL; in data set [4] (4 hours), 75 µg/mL; in data set [4] (24 hours), 94 µg/mL. In addition, in data set [4] (water, after 1, 4 and 24 hours), the “solubility, times higher than hydrochloride Form A of CN105849100A” value is on record as 38-283 times.

For `O=C(O)[C@H]1C2CCC(CC2)[C@@H]1Nc1nc(-c2c[nH]c3ncc(F)cc23)ncc1F` [VX-787, (2S,3S)-3-((5-Huoro-2-(5-fluoro-1.171-pyrrolo[2,3-b]pyridin-3-yl)pyrimidin-4-yl)amino) bicyclo[2.2.2]octane-2-carboxylic acid], the “virological and clinical evaluation of influenza virus infection” value in data set [6] is on record as “statistical significance”. Besides, the tolerance result in data set [7] is “good tolerance”.

For orientation: Solubility means the dissolved amount per volume that the medium holds. Low readings indicate little dissolved substance, high ones much dissolved substance.
